Source: patent publication US5189169A (priority 1991, dated 1993)
“And” between values parts separate entries of the source, which are not always exact repeats. Identical values can stand only once.

How the values were obtained:
Details in all cases: in vivo
[1] = system: three grassy weeds (wild oat, watergrass, foxtail); design: species or system Avena fatua, Echinochloa crusgalli, Setaria viridis
[2] = system: yellow nutsedge; design: species or system Cyperus esculentus
[3] = system: three grassy weeds (wild oat, watergrass, foxtail); design: species or system Avena fatua, Echinochloa crusgalli, Setaria viridis; remark: listed apart in the source
[4] = system: three broadleaf weeds (morning glory, mustard, velvetleaf); design: species or system Ipomoea purpurea, Brassica kaber, Abutilon theophrasti
[5] = system: yellow nutsedge; design: species or system Cyperus esculentus; remark: listed apart in the source
[6] = system: three broadleaf weeds (morning glory, mustard, velvetleaf); design: species or system Ipomoea purpurea, Brassica kaber, Abutilon theophrasti; remark: listed apart in the source

## CCCN(CCC)P(=O)(Sc1ccc(Cl)cc1)N(CCC)CCC [Compound 6]
[1]
  % Control, Post-emergence, GR avg.: 70% and 53%
[2]
  % Control, Post-emergence, NS: 0%
[3]
  % Control, Pre-emergence, GR avg.: 0%
[4]
  % Control, Post-emergence, BL avg.: 80% and 93%
[5]
  % Control, Pre-emergence, NS: 0%
[6]
  % Control, Pre-emergence, BL avg.: 0%
